# In patent US20110201497A1, “Composition Comprising A Pesticide and an Alkoxylate of Iso-Heptadecylamine” (BASF SE, priority 2010, published 2011):
# How the values were obtained:
# [1] = test system: winter wheat; test: Greenhouse test, herbicidal activity of glyphosate SL with amine alkoxylate against winter wheat; assay type: in vivo, winter wheat (cv. Cubus); settings: scored vs untreated control
# Procedure: (§1) To carry out greenhouse tests, the winter wheats (cv. Cubus) or soybeans (cv. Oxford) were sown or potted in loamy sand at a sowing depth of 1-2 cm. As soon as the plants had reached a height of 10 to 25 cm (i.e. approx. 10 to 21 days after sowing), the spray mixtures were applied to the plants in a spray cabinet.
# (§2) A concentrated formulation comprising glyphosate isoproylammonium dissolved in water and amine alkoxylate of example 2 were diluted with fully demineralized water and were applied at a water application rate of 375 l/ha ([…]). The temperatures during the experimental period, which lasted for 3 to 4 weeks, were between 18 and 35° C. During this time, the test plants received optimal irrigation, the nutrient supply being effected via the irrigation water.
# (§3) The herbicidal activity was assessed by scoring the treated plants in comparison with the untreated control plants (table 1). The assessment scale goes from 0% to 100% activity. 100% activity means complete dying at least of the aerial plant parts. In contrast, 0% activity means that no differences were observed between treated and untreated plants. The results in table 1 and 2 confirm the increased activity of the active substance by addition of the amine alkoxylate.
# [2] = test system: soybean; test: Greenhouse test, herbicidal activity of glyphosate SL with amine alkoxylate against soybean; assay type: in vivo, soybean (cv. Oxford); settings: scored vs untreated control
# Procedure: as §1, §2, §3
# [3] = glyphosate 140 g/ha, amine alkoxylate (where present) 300 g/ha, 375 l/ha water
# [4] = glyphosate 280 g/ha, with amine alkoxylate where named
smiles,measurement,setting,value
O=C(O)CNCP(=O)(O)O [glyphosate],Activity [%] after 14 days,[1]; [3],64%
same,Activity [%] after 21 days,[1]; [3],73%
same,Activity [%] after 28 days,[1]; [3],73%
same,Activity [%] after 14 days,[1]; [4],71%
same,Activity [%] after 21 days,[1]; [4],81%
same,Activity [%] after 28 days,[1]; [4],81%
same,Activity [%] after 14 days,[2]; [3],29%
same,Activity [%] after 21 days,[2]; [3],38%
same,Activity [%] after 28 days,[2]; [3],38%
same,Activity [%] after 14 days,[2]; [4],36%
same,Activity [%] after 21 days,[2]; [4],40%
same,Activity [%] after 28 days,[2]; [4],40%
